Measured values reported in patent US8404677B2, “Kinase inhibitors” (Genosco, priority 2009, dated 2013).
Where a name gives a salt, the structure may show the parent alone.

What was measured:
truncated human RET = molecular target: T1, truncated human RET (Homo sapiens, UniProt P07949); assay: Inhibition of enzymatic kinase activity (LANCE Ulight); type: biochemical
T1 construct: truncated human FAK, RET, FLT3, JAK2, and LRRK2 (CARNA BIOSCIENCES™); purchased Carna Biosciences
T1 sequence (P07949 658-1114 limits assumed): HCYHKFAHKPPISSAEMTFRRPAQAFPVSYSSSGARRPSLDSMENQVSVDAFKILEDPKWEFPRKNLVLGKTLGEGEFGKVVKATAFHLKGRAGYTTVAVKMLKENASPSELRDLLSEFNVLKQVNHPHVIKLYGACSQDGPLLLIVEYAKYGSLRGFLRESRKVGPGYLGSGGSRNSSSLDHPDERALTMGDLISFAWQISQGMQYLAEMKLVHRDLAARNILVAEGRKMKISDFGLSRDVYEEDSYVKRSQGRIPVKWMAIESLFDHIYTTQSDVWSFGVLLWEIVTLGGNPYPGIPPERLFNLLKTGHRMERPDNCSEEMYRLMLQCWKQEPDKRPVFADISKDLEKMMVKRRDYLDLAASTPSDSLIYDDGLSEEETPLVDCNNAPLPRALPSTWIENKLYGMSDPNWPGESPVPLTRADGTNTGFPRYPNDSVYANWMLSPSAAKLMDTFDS
Protocol: (§1) Inhibition of Enzymatic SYK, ZAP70, PYK2, FAK, PIM1, RET, FLT3, JAK2 and LRRK2 Kinase Activity
(§2) Compounds of the invention were initially diluted to 10 mM in 100% DMSO (CALBIOCHEM™) for storage and made into kinase buffer solution to create a compound concentration ranging from 1 uM and 10 uM. Serial dilutions of compounds of the invention were dispensed into a 96-well plate (GREINER BIOSCIENCES™) at 6 μL each. Purified full-length human SYK, ZAP70, PIM1, PYK2 and truncated human FAK, RET, FLT3, JAK2, and LRRK2 (CARNA BIOSCIENCES™) were diluted in kinase buffer and added to the compound solutions and pre-incubated for 30 minutes at room temperature (1 hour for PYK2). […] The reaction mixture was incubated for 1 hour (2 hours for PYK2). Following the incubation, the stop solution made with EDTA, water, and Lance detection buffer ([…]™) was added (12 μL each) to stop phosphorylation.

truncated human FLT3 = molecular target: T2, truncated human FLT3 (Homo sapiens, UniProt P36888); assay: as above; type: biochemical
T2 construct: truncated human FAK, RET, FLT3, JAK2, and LRRK2 (CARNA BIOSCIENCES™); purchased Carna Biosciences
T2 sequence (P36888 564-993 limits assumed): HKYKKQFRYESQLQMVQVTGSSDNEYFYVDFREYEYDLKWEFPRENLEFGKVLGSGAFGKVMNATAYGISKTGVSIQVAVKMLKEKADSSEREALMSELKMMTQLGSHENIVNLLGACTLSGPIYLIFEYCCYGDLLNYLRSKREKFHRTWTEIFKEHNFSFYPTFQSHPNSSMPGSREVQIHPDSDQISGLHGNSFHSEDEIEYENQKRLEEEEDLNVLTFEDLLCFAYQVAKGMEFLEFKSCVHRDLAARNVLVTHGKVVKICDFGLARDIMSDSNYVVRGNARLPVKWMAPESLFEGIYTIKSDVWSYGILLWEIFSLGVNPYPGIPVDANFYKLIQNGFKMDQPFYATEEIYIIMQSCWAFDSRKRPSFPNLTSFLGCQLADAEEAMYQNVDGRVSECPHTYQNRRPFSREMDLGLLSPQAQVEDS
Protocol: as §1, §2

truncated human JAK2 = molecular target: T3, truncated human JAK2 (Homo sapiens, UniProt O60674); assay: as above; type: biochemical
T3 construct: truncated human FAK, RET, FLT3, JAK2, and LRRK2 (CARNA BIOSCIENCES™); purchased Carna Biosciences
Protocol: as §1, §2

MTC-TT = assay: Cell viability assay: RET inhibition; type: cell-based, human; conditions: for IC50: Homo sapiens, 48 h, two days after drug treatment; for inhibition level compared with Vandetinib and Sunitinib: RET induced cancer cell line
Protocol: In order to address RET dependent cell viability, the medullary thyroid carcinoma cell line, MTC-TT representing MEN2A was utilized to test compounds of the invention. MTC-TT were cultured at RPMI containing 15 bovine calf serum (Hyclon™ of Thermo™) and supplemented with 2 mM L-Glutamine. The cells were grown at a density of 5×10^4 cells/100 μL/well in duplicate in 96-well plates for one day and treated with different concentrations of test compound. Cell viability for MTC-TT two days after drug treatment was measured by Cell Titer 96 Aqueous One Solution Reagent (Promega™) according to the manufacture instructions. The IC50 value of test compound was calculated at Gradpad Prism 5 unless specified otherwise.

[1] = tested on: MV4-11 cells expressing human FLT3-ITD; assay: Cell viability assay: FLT3-ITD-positive cells; type: cell-based; conditions: for inhibition level compared with Vandetinib and Sunitinib: FLT3 ITD induced cancer cell line; for IC50: Homo sapiens, 72-hour incubation, read-out: MV-4-11 cell viability IC50
Protocol: Compounds of the invention were tested for cell viability effect on MV4-11 cells. For cell viability assay, MV4-11 cells expressing human FLT3-ITD were obtained from the American Type Culture Collection (ATCC, Manassas, Va.). This cell line was maintained with an Roswell Park Memorial Institute (RPMI) medium (HyClone™) containing 10 bovine calf serum (BCS; Hyclone™) supplemented iron. […] CellTiter Aqueous assay (Promega™) was also performed in parallel as an orthogonal assay. IC50 values were calculated using nonlinear regression and defined as the concentration needed for a 50 reduction in luminescence or absorbance treated versus untreated control cells (Prism™ Software).

SYK = SYK (Homo sapiens, UniProt P43405); assay: Inhibition of enzymatic kinase activity (LANCE Ulight); type: biochemical; design: Purified full-length human SYK, ZAP70, PIM1, PYK2; purchased Carna Biosciences; conditions: at 1 μM concentration; for inhibition at 1 µM: read-out: SYK percentage inhibition
Protocol: as §1, §2

PYK2 = PYK2 (Homo sapiens, UniProt Q14289); assay: as above; type: biochemical; design: Purified full-length human SYK, ZAP70, PIM1, PYK2; purchased Carna Biosciences; conditions: at 1 μM concentration; for inhibition at 1 µM: read-out: PYK2 percentage inhibition
Protocol: as §1, §2

truncated human FAK = molecular target: T4, truncated human FAK (Homo sapiens, UniProt Q05397); assay: as above; type: biochemical; conditions: at 1 μM concentration; for inhibition at 1 µM: read-out: FAK percentage inhibition
T4 construct: truncated human FAK, RET, FLT3, JAK2, and LRRK2 (CARNA BIOSCIENCES™); purchased Carna Biosciences
Protocol: as §1, §2

human ZAP70 = molecular target: T5, human ZAP70 (Homo sapiens, UniProt P43403); assay: as above; type: biochemical; conditions: at 1 μM concentration; for inhibition at 1 µM: read-out: ZAP70 percentage inhibition
T5 construct: Purified full-length human SYK, ZAP70, PIM1, PYK2; purchased Carna Biosciences
T5 sequence (P43403 1-619): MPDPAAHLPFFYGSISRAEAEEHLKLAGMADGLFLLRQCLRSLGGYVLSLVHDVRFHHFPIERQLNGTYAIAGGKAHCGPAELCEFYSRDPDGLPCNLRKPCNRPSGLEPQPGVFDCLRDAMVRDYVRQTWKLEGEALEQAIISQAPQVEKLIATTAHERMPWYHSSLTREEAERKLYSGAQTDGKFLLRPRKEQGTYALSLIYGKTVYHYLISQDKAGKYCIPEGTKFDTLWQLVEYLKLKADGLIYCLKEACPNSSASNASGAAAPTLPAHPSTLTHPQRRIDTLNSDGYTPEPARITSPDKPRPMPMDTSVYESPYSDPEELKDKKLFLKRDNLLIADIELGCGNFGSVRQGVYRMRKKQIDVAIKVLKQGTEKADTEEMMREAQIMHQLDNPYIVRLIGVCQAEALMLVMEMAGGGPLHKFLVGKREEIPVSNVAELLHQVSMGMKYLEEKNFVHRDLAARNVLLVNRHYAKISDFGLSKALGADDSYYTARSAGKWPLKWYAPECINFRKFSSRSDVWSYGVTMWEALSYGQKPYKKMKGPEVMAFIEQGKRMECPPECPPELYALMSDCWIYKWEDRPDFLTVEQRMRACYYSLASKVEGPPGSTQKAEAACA
Protocol: as §1, §2

human PIM1 = molecular target: T6, human PIM1 (Homo sapiens, UniProt P11309); assay: as above; type: biochemical; conditions: at 1 μM concentration; for inhibition at 1 µM: read-out: PIM1 percentage inhibition
T6 construct: Purified full-length human SYK, ZAP70, PIM1, PYK2; purchased Carna Biosciences
Protocol: as §1
as §2, with “phosphorylation. […] Substrate phosphorylation was a function of the 665 nm emission measured following the addition of the detection solution and 50 minutes of incubation.” for “phosphorylation.”

[2] = tested on: HEL cells expressing human JAK2 V617F; assay: Cell viability assay: JAK2 inhibition; type: cell-based; conditions: Homo sapiens, 72-hour incubation
Protocol: Compounds of the invention were tested for cell viability effect on HEL cells. For cell viability assay, HEL cells expressing human JAK2 V617F were obtained from the American Type Culture Collection (ATCC, Manassas, Va.). This cell line was maintained with an Roswell Park Memorial Institute (RPMI) medium (HyClone™) containing 10 bovine calf serum (BCS; Hyclone™) supplemented iron. The HEL cells were seeded at 2×10^4 cells in 96 well culture plates, and serially diluted compound was then added. After a 72-hour incubation period at 37° C., Cell viability was measured using the ATPLite 1 step assay (Perkin-Elmer™) that is based on the quantification of ATP from viable cells. CellTiter Aqueous assay (Promega™) was also performed in parallel as an orthogonal assay. IC50 values were calculated using nonlinear regression and defined as the concentration needed for a 50 reduction in luminescence or absorbance treated versus untreated control cells (Prism™ Software).

Sequence of PYK2 (Q14289 whole entry): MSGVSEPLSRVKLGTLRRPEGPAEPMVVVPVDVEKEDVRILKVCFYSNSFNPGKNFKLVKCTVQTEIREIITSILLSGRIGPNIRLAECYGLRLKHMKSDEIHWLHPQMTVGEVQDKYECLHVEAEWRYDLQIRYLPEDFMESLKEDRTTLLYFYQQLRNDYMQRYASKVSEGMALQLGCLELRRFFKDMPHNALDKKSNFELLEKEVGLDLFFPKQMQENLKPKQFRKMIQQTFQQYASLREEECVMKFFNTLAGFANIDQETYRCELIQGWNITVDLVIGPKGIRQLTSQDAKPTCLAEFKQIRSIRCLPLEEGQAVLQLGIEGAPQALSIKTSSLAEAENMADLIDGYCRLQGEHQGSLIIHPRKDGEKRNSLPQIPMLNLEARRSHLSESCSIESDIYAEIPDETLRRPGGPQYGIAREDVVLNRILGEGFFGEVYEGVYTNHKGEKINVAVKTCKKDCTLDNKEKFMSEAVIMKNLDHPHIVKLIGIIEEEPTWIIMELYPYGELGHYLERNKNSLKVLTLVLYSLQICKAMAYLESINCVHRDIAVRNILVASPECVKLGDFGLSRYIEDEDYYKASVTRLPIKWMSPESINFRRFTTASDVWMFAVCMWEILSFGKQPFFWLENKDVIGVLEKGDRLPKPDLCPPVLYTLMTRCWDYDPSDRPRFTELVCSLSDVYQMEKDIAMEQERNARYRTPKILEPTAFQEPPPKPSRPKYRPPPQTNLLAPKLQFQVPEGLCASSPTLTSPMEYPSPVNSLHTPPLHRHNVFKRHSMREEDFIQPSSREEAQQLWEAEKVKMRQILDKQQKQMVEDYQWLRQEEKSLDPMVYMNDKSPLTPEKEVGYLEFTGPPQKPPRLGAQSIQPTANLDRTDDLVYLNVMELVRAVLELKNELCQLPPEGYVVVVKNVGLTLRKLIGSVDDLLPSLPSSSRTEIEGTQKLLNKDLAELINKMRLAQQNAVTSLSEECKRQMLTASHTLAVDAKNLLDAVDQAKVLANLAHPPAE
T6 sequence (P11309 whole entry): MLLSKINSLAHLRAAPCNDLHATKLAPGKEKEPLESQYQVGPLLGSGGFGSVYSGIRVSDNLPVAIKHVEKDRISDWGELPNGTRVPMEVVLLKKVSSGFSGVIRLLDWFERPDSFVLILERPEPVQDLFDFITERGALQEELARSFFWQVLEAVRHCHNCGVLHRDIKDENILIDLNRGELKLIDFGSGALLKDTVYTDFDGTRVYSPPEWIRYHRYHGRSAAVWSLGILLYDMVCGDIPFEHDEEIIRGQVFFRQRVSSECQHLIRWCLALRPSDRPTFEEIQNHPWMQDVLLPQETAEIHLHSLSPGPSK
T4 sequence (Q05397 376-1052 limits assumed): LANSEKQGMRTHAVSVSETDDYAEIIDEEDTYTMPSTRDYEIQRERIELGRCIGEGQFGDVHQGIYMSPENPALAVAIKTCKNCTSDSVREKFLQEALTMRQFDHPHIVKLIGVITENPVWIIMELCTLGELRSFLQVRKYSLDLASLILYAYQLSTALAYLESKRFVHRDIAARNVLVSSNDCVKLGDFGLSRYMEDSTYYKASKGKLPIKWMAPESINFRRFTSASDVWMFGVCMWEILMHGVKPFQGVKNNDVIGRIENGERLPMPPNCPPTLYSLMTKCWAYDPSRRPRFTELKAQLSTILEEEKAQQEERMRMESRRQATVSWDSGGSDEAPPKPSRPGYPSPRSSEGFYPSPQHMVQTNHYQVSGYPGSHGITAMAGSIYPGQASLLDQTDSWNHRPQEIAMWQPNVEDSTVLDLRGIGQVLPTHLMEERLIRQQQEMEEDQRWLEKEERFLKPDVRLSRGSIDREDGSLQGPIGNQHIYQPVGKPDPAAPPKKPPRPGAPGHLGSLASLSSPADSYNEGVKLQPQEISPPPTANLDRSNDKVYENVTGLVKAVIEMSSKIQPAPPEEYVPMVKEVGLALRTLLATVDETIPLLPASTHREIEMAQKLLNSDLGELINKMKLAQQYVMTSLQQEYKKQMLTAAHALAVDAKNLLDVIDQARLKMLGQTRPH
T3 sequence (O60674 826-1132 limits assumed): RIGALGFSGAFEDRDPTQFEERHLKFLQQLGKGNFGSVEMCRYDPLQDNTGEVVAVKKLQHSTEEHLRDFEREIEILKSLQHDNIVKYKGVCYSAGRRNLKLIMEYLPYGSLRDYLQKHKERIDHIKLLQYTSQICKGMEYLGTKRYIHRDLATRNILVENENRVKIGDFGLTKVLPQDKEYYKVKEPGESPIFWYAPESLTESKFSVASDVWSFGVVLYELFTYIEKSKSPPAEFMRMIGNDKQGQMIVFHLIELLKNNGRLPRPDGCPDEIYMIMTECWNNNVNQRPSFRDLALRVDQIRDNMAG

Row | Compound | IC50 (MTC-TT) [nM] | IC50 ([1]; MV4-11) [nM] | inhibition at 1 µM (SYK) [%] | inhibition at 1 µM (PYK2) [%] | inhibition at 1 µM (truncated human FAK) [%] | inhibition at 1 µM (human ZAP70) [%] | inhibition at 1 µM (human PIM1) [%] | also measured
1 | Cl.O=c1[nH]ccc2nc(N[C@H]3CCNC3)nc(Nc3ccc(C(F)(F)F)cc3)c12 [Compound 8, (S)-2-(pyrrolidin-3-ylamino)-4-(4-(trifluoromethyl)phenylamino)pyrido[4,3-d]pyrimidin-5(6H)-one hydrochloride] | 14 | 0.1 |  |  |  |  |  | IC50 (truncated human RET): 2.6 nM; IC50 (truncated human FLT3): 0.2 nM; IC50 (truncated human JAK2): 12.7 nM; times higher inhibition in IC50 than Vandetanib and Sunitinib (MTC-TT; MTC-TT): 6 time; inhibition level compared with Vandetinib and Sunitinib (MTC-TT): inhibition level greater than those exhibited by Vandetinib and Sunitinib; inhibition level compared with Vandetinib and Sunitinib [1]: inhibition level greater than those exhibited by Vandetinib and Sunitinib; times higher inhibition in IC50 than Sunitinib and PKC-412 ([1]; MV4-11): 10-30 time
2 | NC1CCN(c2nc(Nc3cccc(Br)c3)c3c(=O)[nH]ccc3n2)CC1 [Compound 84, 2-(4-aminopiperidin-1-yl)-4-(3-bromophenylamino)pyrido[4,3-d]pyrimidin-5(6H)-one hydrochloride] |  |  | 95.7 | 92.8 | 92.9 | 54.6 | 71.2 | 
3 | CS(=O)(=O)c1ccc(Nc2nc(N3CCC(O)CC3)nc3cc[nH]c(=O)c23)cc1 [Compound 126, 2-(4-hydroxypiperidin-1-yl)-4(4-(methylsulfonyl)phenylamino)pyrido[4,3d]pyrimidin-5(6H)-one] |  |  | 95.1 | 39.5 | 80.8 | 49.3 | 12.7 | 
4 | Cl.O=c1[nH]ccc2nc(N[C@H]3CCNC3)nc(Nc3ccc(N4CCOCC4)cc3)c12 [Compound 136, (S)-4-(4-morpholinophenylamino)-2-(pyrrolidin-3-ylamino)pyrido[4,3-d]pyrimidin-5(6H)-one hydrochloride] | 33 | 0.1 |  |  |  |  |  | IC50 (truncated human RET): 1.3 nM; IC50 (truncated human FLT3): 0.1 nM; IC50 (truncated human JAK2): 3.9 nM; inhibition level compared with Vandetinib and Sunitinib (MTC-TT): inhibition level greater than those exhibited by Vandetinib and Sunitinib; inhibition level compared with Vandetinib and Sunitinib [1]: inhibition level greater than those exhibited by Vandetinib and Sunitinib
5 | Cn1ccc2nc(N3CCC(O)CC3)nc(Nc3cccc(C(F)(F)F)c3)c2c1=O [Compound 168, 2-(4-hydroxypiperidine-1-yl)-6-methyl-4-(3-(trifluoromethyl)phenylamino)pyrido[4,3-d]pyrimidin-5(6H)-one] |  |  | 3 | 1 | 4.9 | 6.2 | 7.3 | 
6 | CNC(=O)c1cc(Oc2ccc(NC(=O)Nc3ccc(Cl)c(C(F)(F)F)c3)cc2)ccn1 [Sorafenib, reference compound] |  |  |  |  |  |  |  | IC50 [2]: > 1000 nM
7 | CCN(CC)CCNC(=O)c1c(C)[nH]c(/C=C2\C(=O)Nc3ccc(F)cc32)c1C [Sunitinib, reference compound] | 117 | 3.8 |  |  |  |  |  | 
8 | (2-((1R,2S)-2-aminocyclohexylamino)-4-(3-(trifluoromethyl)phenylamino)pyrido[4,3-d]pyrimidin-5(6H)-one with (2-((1S,2R)-2-aminocyclohexylamino)-4-(3-(trifluoromethyl)phenylamino)pyrido[4,3-d]pyrimidin-5(6H)-one [Compound 101] |  |  |  |  |  |  |  | SYK percentage inhibition (SYK): 90%; PYK2 percentage inhibition (PYK2): 85%; FAK percentage inhibition (truncated human FAK): 77%; ZAP70 percentage inhibition (human ZAP70): 45%; PIM1 percentage inhibition (human PIM1): 61%
